Source: patent US20250213572A1, “TYK2 INHIBITORS AND USES THEREOF” (Takeda Pharmaceutical Company Limited, priority 2022, published 2025)
“Also recorded” adds a separate entry of the source. Like-named read-outs stand apart in the source and are kept apart here. Marks after values point to notes of the source that are not given here.

What was measured:
CYP450 2C19 = CYP450 2C19 (Homo sapiens, UniProt P33261); test: CYP450 inhibition, 2C19; type: in vitro ADME
[1] = Pharmacokinetics in healthy volunteers (PO; QD), Study 101 and Study 104 (FIG. 11, FIG. 12); type: in vivo, human
[2] = Nonclinical oral absorption across species (summary); type: in vivo
CYP450 1A2 = CYP450 1A2 (Homo sapiens, UniProt P05177); test: CYP450 inhibition, 1A2; type: in vitro ADME
CYP450 1A2, sequence (P05177 whole entry): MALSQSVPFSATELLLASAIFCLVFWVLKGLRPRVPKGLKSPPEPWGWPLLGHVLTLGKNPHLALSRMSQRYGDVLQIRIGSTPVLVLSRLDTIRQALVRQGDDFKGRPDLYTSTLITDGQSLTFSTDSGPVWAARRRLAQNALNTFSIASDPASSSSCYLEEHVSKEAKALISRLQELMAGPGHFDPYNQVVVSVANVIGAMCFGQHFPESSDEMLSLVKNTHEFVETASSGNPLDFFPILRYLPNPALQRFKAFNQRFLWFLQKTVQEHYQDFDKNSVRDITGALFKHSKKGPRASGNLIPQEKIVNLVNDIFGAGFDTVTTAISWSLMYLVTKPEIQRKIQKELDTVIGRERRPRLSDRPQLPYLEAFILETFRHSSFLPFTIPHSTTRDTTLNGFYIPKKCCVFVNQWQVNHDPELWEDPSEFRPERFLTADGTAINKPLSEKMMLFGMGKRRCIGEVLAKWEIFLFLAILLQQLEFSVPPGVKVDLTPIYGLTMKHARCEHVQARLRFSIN

TYK2 = test: rWB IFNα IP-10 (rat whole-blood TYK2-dependent IFNα-induced IP10 assay); type: cell-based
hepatocytes [3] = test: Hepatocyte predicted clearance (Hep Clpred), cyno; type: in vitro ADME; conditions: in vitro
hepatocytes [4] = test: Hepatocyte predicted clearance (Hep Clpred), mouse; type: in vitro ADME; conditions: in vitro
[5] = tested on: TYK2-dependent interferon gamma (IFNγ); test: Ex-vivo whole blood IL-12/IL-18 stimulated IFNγ production (pharmacodynamics); type: in vivo, human; conditions: after oral dosing
Protocol: Pharmacodynamic Results: The PD effect of treatment within this study was assessed using an ex-vivo immune-assay measuring the amount of TYK2-dependent interferon gamma (IFNγ) produced by whole blood samples that were stimulated with the cytokines IL-12 and IL-18 at baseline (predose) and following treatment.

PXR = PXR (Homo sapiens, UniProt O75469); test: PXR activation; type: cell-based; conditions: at 30 μM
PXR, sequence (O75469 whole entry): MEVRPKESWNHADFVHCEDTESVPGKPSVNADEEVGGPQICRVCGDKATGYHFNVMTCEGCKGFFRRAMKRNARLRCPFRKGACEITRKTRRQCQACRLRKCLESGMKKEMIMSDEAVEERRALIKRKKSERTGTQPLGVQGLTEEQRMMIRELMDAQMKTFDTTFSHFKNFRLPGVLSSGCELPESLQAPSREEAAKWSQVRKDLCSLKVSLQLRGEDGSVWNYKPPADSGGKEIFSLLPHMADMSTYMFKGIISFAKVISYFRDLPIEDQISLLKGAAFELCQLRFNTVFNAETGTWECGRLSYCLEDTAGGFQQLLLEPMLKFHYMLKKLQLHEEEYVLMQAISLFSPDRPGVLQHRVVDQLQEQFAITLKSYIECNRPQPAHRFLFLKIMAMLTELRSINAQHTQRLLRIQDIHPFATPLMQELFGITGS

[6] = Plasma protein binding (PPB Fu), mouse; type: in vitro ADME; conditions: in vitro
[7] = Three placebo-controlled Phase I studies, pooled summary; conditions: across the 3 Phase I studies
hepatocytes [8] = test: Hepatocyte predicted clearance (Hepatopac low turnover assay), human; type: in vitro ADME
clinical = conditions: human, in vivo
[9] = Phase 2b study in plaque psoriasis (Example 4): safety
[10] = tested on: moderate to severe plaque psoriasis; conditions: for mean percent reduction from PASI score at Day 28 compared to Day 1: 28 days

CYP450 2C19, sequence (P33261 whole entry): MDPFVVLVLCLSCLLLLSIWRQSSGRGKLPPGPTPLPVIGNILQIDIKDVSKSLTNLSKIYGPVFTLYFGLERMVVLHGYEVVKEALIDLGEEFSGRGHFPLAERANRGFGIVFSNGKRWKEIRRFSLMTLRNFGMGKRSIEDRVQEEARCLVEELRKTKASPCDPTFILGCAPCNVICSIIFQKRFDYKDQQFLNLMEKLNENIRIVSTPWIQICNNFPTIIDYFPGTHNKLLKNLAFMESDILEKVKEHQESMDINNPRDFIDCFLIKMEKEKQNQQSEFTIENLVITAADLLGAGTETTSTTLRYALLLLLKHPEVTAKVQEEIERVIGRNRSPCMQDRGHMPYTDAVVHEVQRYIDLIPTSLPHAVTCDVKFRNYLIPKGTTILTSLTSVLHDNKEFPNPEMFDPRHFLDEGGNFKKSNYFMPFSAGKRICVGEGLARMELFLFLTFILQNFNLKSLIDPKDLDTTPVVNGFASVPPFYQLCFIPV

In the case of CNc1cc(Nc2cccn(-c3ccccn3)c2=O)nc2c(C(=O)N[C@@H]3CC[C@H]3OC)cnn12 [Compound 1, N-((1R,2R)-2-methoxycyclobutyl)-7-(methylamino)-5-((2-oxo-2H-[1,2′-bipyridin]-3-yl)amino)pyrazolo[1,5-a]pyrimidine-3-carboxamide], the IC50 (CYP450 2C19) is reported as over 8 µM, the “dose proportionality of Cmax and AUC0-24” value ([1]; 5-75 mg) is reported as “increased in an approximately dose-proportional manner” and the half-life ([1]; human, plasma, po, across doses, read-out: Oral T1/2) is reported as 16.5 to 30.7 h. The Tmax ([1]; human, plasma, day 1 and day 14, PO QD, read-out: median Tmax of peak mean plasma concentrations) was 4 to 6 h, the absorption [2] was “good absorption across species” and the IC50 (CYP450 1A2) was over 30 µM. The IC50 (TYK2) was […], the “Hep Clpred” value (hepatocytes [3]) was 11 mL/min/kg and the “Hep Clpred” value (hepatocytes [4]) was 54 mL/min/kg. For the same molecule, the “IFNγ production in cytokine-stimulated ex vivo whole blood” value [5] was “greater reduction in IFNγ; also recorded: dose-dependent inhibition of IFNy; also recorded: rapid inhibition of interferon gamma (IFNγ) production”, the PXR activation (PXR) was 26 % of rifampicin control and the fraction unbound [6] was 0.08. For the same molecule, the “serious adverse events (SAEs) or deaths” value [7] was “No serious adverse events (SAEs) or deaths were observed”, the “Hep Clpred” value (hepatocytes [8]) was 0.69* mL/min/kg and the CL renal (clinical) was 1 to 5 mL/min. For the same molecule, the Tmax (clinical) was 3 to 5 h, the AUC(0-inf) (clinical; 75 mg) was 589 to 8370 ng·h/mL and the Cmax (clinical; 75 mg) was 21.6 to 237 ng/mL. The AUC(0-inf) (clinical; 100 mg) was 10700 ng·h/mL, the AUC(0-inf) (clinical; 150 mg) was 12200 ng·h/mL and the Cmax (clinical; 200 mg) was 232 to 250 ng/mL. The “kind of adverse event leading to drug discontinuation” value (from here on “kind of adverse event leading”) ([9]; 2 mg) was “Lymphocyte count decreased (2 mg)”, the AEs ([9]; 2 mg QD) was 31 (62) Number of patients (percent) and the “AEs leading to discontinuation” value ([9]; 2 mg QD) was 1 (2) Number of patients (percent). For the same molecule, the “ALT elevation, CTCAE Grade ≥3” value ([9]; 2 mg QD) was 0 Number of patients (percent), the “AST elevation, CTCAE Grade ≥3” value ([9]; 2 mg QD) was 0 Number of patients (percent) and the Acne ([9]; 2 mg QD) was 0 Number of patients (percent). The Acneiform dermatitis ([9]; 2 mg QD) was 0 Number of patients (percent), the “Anemia, CTCAE Grade ≥3” value ([9]; 2 mg QD) was 0 Number of patients (percent) and the COVID-19 ([9]; 2 mg QD) was 6 (12) Number of patients (percent). For the same molecule, the “CPK elevation, CTCAE Grade ≥3” value ([9]; 2 mg QD) was 0 Number of patients (percent), the “Cholesterol elevation, Wk 12, CTCAE Grade ≥3” value (“Cholesterol elevation” for short) ([9]; 2 mg QD) was 0 Number of patients (percent) and the “Creatinine elevation, CTCAE Grade ≥3” value ([9]; 2 mg QD) was 0 Number of patients (percent). The Deaths ([9]; 2 mg QD) was 0 Number of patients (percent), the Diarrhea ([9]; 2 mg QD) was 3 (6) Number of patients (percent) and the “Lymphopenia, CTCAE Grade ≥3” value ([9]; 2 mg QD) was 1 (2) Number of patients (percent). For the same molecule, the “Serious AEs” value ([9]; 2 mg QD) was 0 Number of patients (percent), the “Thrombocytopenia, CTCAE Grade ≥3” value ([9]; 2 mg QD) was 0 Number of patients (percent) and the “Triglyceride elevation, Wk 12, CTCAE Grade ≥3” value ([9]; 2 mg QD) was 1 (2) Number of patients (percent). For the same molecule, the “Worsening of proteinuria, CTCAE Grade ≥3” value ([9]; 2 mg QD) was 0 Number of patients (percent), the “kind of adverse event leading” value ([9]; 5 mg) was “Tachycardia and syncope (5 mg)” and the AEs ([9]; 5 mg QD) was 28 (54) Number of patients (percent). For the same molecule, the “AEs leading to discontinuation” value ([9]; 5 mg QD) was 1 (2) Number of patients (percent), the “ALT elevation, CTCAE Grade ≥3” value ([9]; 5 mg QD) was 0 Number of patients (percent) and the “AST elevation, CTCAE Grade ≥3” value ([9]; 5 mg QD) was 0 Number of patients (percent). The Acne ([9]; 5 mg QD) was 1 (2) Number of patients (percent), the Acneiform dermatitis ([9]; 5 mg QD) was 1 (2) Number of patients (percent) and the “Anemia, CTCAE Grade ≥3” value ([9]; 5 mg QD) was 0 Number of patients (percent). For the same molecule, the COVID-19 ([9]; 5 mg QD) was 4 (8) Number of patients (percent), the “CPK elevation, CTCAE Grade ≥3” value ([9]; 5 mg QD) was 0 Number of patients (percent) and the “Cholesterol elevation” value ([9]; 5 mg QD) was 0 Number of patients (percent). The “Creatinine elevation, CTCAE Grade ≥3” value ([9]; 5 mg QD) was 0 Number of patients (percent), the Deaths ([9]; 5 mg QD) was 0 Number of patients (percent) and the Diarrhea ([9]; 5 mg QD) was 1 (2) Number of patients (percent). For the same molecule, the “Lymphopenia, CTCAE Grade ≥3” value ([9]; 5 mg QD) was 0 Number of patients (percent), the “Serious AEs” value ([9]; 5 mg QD) was 0 Number of patients (percent) and the “Thrombocytopenia, CTCAE Grade ≥3” value ([9]; 5 mg QD) was 0 Number of patients (percent). The “Triglyceride elevation, Wk 12, CTCAE Grade ≥3” value ([9]; 5 mg QD) was 0 Number of patients (percent), the “Worsening of proteinuria, CTCAE Grade ≥3” value ([9]; 5 mg QD) was 0 Number of patients (percent) and the “kind of adverse event leading” value ([9]; 15 mg) was “Pericardial effusion and pleural effusion (15 mg)”. For the same molecule, the AEs ([9]; 15 mg QD) was 28 (53) Number of patients (percent), the “AEs leading to discontinuation” value ([9]; 15 mg QD) was 1 (2) Number of patients (percent) and the “ALT elevation, CTCAE Grade ≥3” value ([9]; 15 mg QD) was 0 Number of patients (percent). The “AST elevation, CTCAE Grade ≥3” value ([9]; 15 mg QD) was 0 Number of patients (percent), the Acne ([9]; 15 mg QD) was 3 (6) Number of patients (percent) and the Acneiform dermatitis ([9]; 15 mg QD) was 1 (2) Number of patients (percent). For the same molecule, the “Anemia, CTCAE Grade ≥3” value ([9]; 15 mg QD) was 0 Number of patients (percent), the COVID-19 ([9]; 15 mg QD) was 6 (11) Number of patients (percent) and the “CPK elevation, CTCAE Grade ≥3” value ([9]; 15 mg QD) was 1 (2) Number of patients (percent). For the same molecule, the “Cholesterol elevation” value ([9]; 15 mg QD) was 0 Number of patients (percent), the “Creatinine elevation, CTCAE Grade ≥3” value ([9]; 15 mg QD) was 0 Number of patients (percent) and the Deaths ([9]; 15 mg QD) was 0 Number of patients (percent). For the same molecule, the Diarrhea ([9]; 15 mg QD) was 1 (2) Number of patients (percent), the “Lymphopenia, CTCAE Grade ≥3” value ([9]; 15 mg QD) was 0 Number of patients (percent) and the “Serious AEs” value ([9]; 15 mg QD) was 1 (2) Number of patients (percent). For the same molecule, the “Thrombocytopenia, CTCAE Grade ≥3” value ([9]; 15 mg QD) was 0 Number of patients (percent), the “Triglyceride elevation, Wk 12, CTCAE Grade ≥3” value ([9]; 15 mg QD) was 1 (2) Number of patients (percent) and the “Worsening of proteinuria, CTCAE Grade ≥3” value ([9]; 15 mg QD) was 0 Number of patients (percent). The “kind of adverse event leading” value ([9]; 30 mg) was “CPK increased (30 mg); also recorded: One additional subject (30 mg) permanently discontinued study drug due to an AE of hypertensive urgency, but remained in study”, the AEs ([9]; 30 mg QD) was 31 (60) Number of patients (percent) and the “AEs leading to discontinuation” value ([9]; 30 mg QD) was 2 (4) Number of patients (percent). For the same molecule, the “ALT elevation, CTCAE Grade ≥3” value ([9]; 30 mg QD) was 0 Number of patients (percent), the “AST elevation, CTCAE Grade ≥3” value ([9]; 30 mg QD) was 0 Number of patients (percent) and the Acne ([9]; 30 mg QD) was 2 (4) Number of patients (percent). For the same molecule, the Acneiform dermatitis ([9]; 30 mg QD) was 3 (6) Number of patients (percent), the “Anemia, CTCAE Grade ≥3” value ([9]; 30 mg QD) was 0 Number of patients (percent) and the COVID-19 ([9]; 30 mg QD) was 7 (14) Number of patients (percent). For the same molecule, the “CPK elevation, CTCAE Grade ≥3” value ([9]; 30 mg QD) was 1 (2) Number of patients (percent), the “Cholesterol elevation” value ([9]; 30 mg QD) was 0 Number of patients (percent) and the “Creatinine elevation, CTCAE Grade ≥3” value ([9]; 30 mg QD) was 0 Number of patients (percent). For the same molecule, the Deaths ([9]; 30 mg QD) was 0 Number of patients (percent), the Diarrhea ([9]; 30 mg QD) was 0 Number of patients (percent) and the “Lymphopenia, CTCAE Grade ≥3” value ([9]; 30 mg QD) was 0 Number of patients (percent). For the same molecule, the “Serious AEs” value ([9]; 30 mg QD) was 0 Number of patients (percent), the “Thrombocytopenia, CTCAE Grade ≥3” value ([9]; 30 mg QD) was 0 Number of patients (percent) and the “Triglyceride elevation, Wk 12, CTCAE Grade ≥3” value ([9]; 30 mg QD) was 1 (2) Number of patients (percent). The “Worsening of proteinuria, CTCAE Grade ≥3” value ([9]; 30 mg QD) was 0 Number of patients (percent), the CPK ([9]; FIG. 17E) was “shows some variability at 15 mg and 30 mg with large error bars” and the Triglyceride elevation ([9]; FIG. 19B) was “minimal”. For the same molecule, the “hematological parameters, mean lab values and changes from baseline” value ([9]; FIGS. 17A-17E, weeks 0-16) was “do not reveal adverse trends in cell counts”, the “hepatic and renal parameters, mean lab values and changes from baseline” value ([9]; FIGS. 18A-18E) was “do not reveal adverse trends for liver enzymes, creatinine or eGFR” and the “lipid parameters, mean lab values and changes from baseline” value ([9]; FIGS. 19A-19E) was “do not reveal adverse trends for cholesterol, HDL, or LDL”. For the same molecule, the “mean percent reduction from PASI score at Day 28 compared to Day 1” value (“mean percent reduction from PASI score” below) ([10]; 5 mg daily) was 30%, the PASI-50 achieved ([10]; 5 mg, 1/8, Day 28) was 13% and the “mean PASI on Day 28” value ([10]; 5 mg, 15.4 on Day 1) was 10.9. For the same molecule, the “mean percent reduction from PASI score” value ([10]; 10 mg daily) was 47%, the PASI-50 achieved ([10]; 10 mg, 4/7, Day 28) was 57% and the “mean PASI on Day 28” value ([10]; 10 mg, 18.2 on Day 1) was 9.6. The “mean percent reduction from PASI score” value ([10]; 30 mg daily) was 48%, the “PASI 90 achieved” value ([10]; 30 mg group, Day 28) was “The same subject also achieved PAST 90” and the PASI-75 achieved ([10]; 30 mg, 1/5, Day 28) was 20%. For the same molecule, the PASI-50 achieved ([10]; 30 mg, 2/5, Day 28) was 40%, the “mean PASI on Day 28” value ([10]; 30 mg, 20.0 on Day 1) was 10.4 and the PASI-75 achieved ([10]; 5 and 10 mg groups, Day 28) was “not achieved in the other groups”. The sPGA score ([10]; 30-mg cohort, Day 28) was “one subject in the 30-mg cohort achieving an sPGA of 1”.
